Laboratory results as given in ChEMBL document CHEMBL1152526, “Synthesis of C(7) modified chrysin derivatives designing to inhibit beta-ketoacyl-acyl carrier protein synthase III (FabH) as antibiotics” (Bioorg Med Chem, 2009).
In brackets after ≈: the same amount, converted by molar mass.

Legend:
[1] = Inhibition of Escherichia coli FabH overexpressed in Escherichia coli DH10B cells by liquid scintillation counting
[2] = system: Staphylococcus aureus; experiment: Antibacterial activity against Staphylococcus aureus after 24 hrs by MTT assay; type: functional
[3] = system: Escherichia coli; experiment: Antibacterial activity against Escherichia coli after 24 hrs by MTT assay; type: functional
[4] = system: Pseudomonas fluorescens; experiment: Antibacterial activity against Pseudomonas fluorescens after 24 hrs by MTT assay; type: functional
[5] = system: Bacillus subtilis; experiment: Antibacterial activity against Bacillus subtilis after 24 hrs by MTT assay; type: functional

## CN1CCN(CCCOc2cc(O)c3c(=O)cc(-c4ccccc4)oc3c2)CC1
[1]
  IC50: 5.2 µM
[2]
  MIC: 3.13 µg/mL (≈ 7.93 µM)
[3]
  MIC: 6.25 µg/mL (≈ 15.8 µM)
[4]
  MIC: 12.5 µg/mL (≈ 31.7 µM)
[5]
  MIC: 6.25 µg/mL (≈ 15.8 µM)

## NCCCNCCOc1cc(O)c2c(=O)cc(-c3ccccc3)oc2c1
[2]
  MIC: > 50 µg/mL
[3]
  MIC: > 50 µg/mL
[4]
  MIC: > 50 µg/mL
[5]
  MIC: > 50 µg/mL

## O=c1cc(-c2ccccc2)oc2cc(OCCN3CCCCC3)cc(O)c12
[2]
  MIC: 12.5 µg/mL (≈ 34.2 µM)
[3]
  MIC: 12.5 µg/mL (≈ 34.2 µM)
[4]
  MIC: 12.5 µg/mL (≈ 34.2 µM)
[5]
  MIC: 25 µg/mL (≈ 68.4 µM)

## CCCCN(CCCC)CCOc1cc(O)c2c(=O)cc(-c3ccccc3)oc2c1
[2]
  MIC: > 50 µg/mL
[3]
  MIC: > 50 µg/mL
[4]
  MIC: > 50 µg/mL
[5]
  MIC: > 50 µg/mL

## O=c1cc(-c2ccccc2)oc2cc(OCCCN3CCCC3)cc(O)c12
[1]
  IC50: 3.1 µM
[2]
  MIC: 3.13 µg/mL (≈ 8.57 µM)
[3]
  MIC: 1.56 µg/mL (≈ 4.27 µM)
[4]
  MIC: 6.25 µg/mL (≈ 17.1 µM)
[5]
  MIC: 6.25 µg/mL (≈ 17.1 µM)

## O=c1cc(-c2ccccc2)oc2cc(OCCN3CCNCC3)cc(O)c12
[1]
  IC50: 11.2 µM
[2]
  MIC: 25 µg/mL (≈ 68.2 µM)
[3]
  MIC: 12.5 µg/mL (≈ 34.1 µM)
[4]
  MIC: 6.25 µg/mL (≈ 17.1 µM)
[5]
  MIC: 25 µg/mL (≈ 68.2 µM)

## CCCCNCCCOc1cc(O)c2c(=O)cc(-c3ccccc3)oc2c1
[2]
  MIC: 12.5 µg/mL (≈ 34 µM)
[3]
  MIC: 12.5 µg/mL (≈ 34 µM)
[4]
  MIC: 12.5 µg/mL (≈ 34 µM)
[5]
  MIC: 25 µg/mL (≈ 68 µM)

## CCCCN(CCCC)CCCOc1cc(O)c2c(=O)cc(-c3ccccc3)oc2c1
[2]
  MIC: > 50 µg/mL
[3]
  MIC: > 50 µg/mL
[4]
  MIC: > 50 µg/mL
[5]
  MIC: > 50 µg/mL

## CCN(CC)CCCOc1cc(O)c2c(=O)cc(-c3ccccc3)oc2c1
[2]
  MIC: > 50 µg/mL
[3]
  MIC: > 50 µg/mL
[4]
  MIC: > 50 µg/mL
[5]
  MIC: > 50 µg/mL

## CCCNCCCOc1cc(O)c2c(=O)cc(-c3ccccc3)oc2c1
[2]
  MIC: 12.5 µg/mL (≈ 35.4 µM)
[3]
  MIC: 12.5 µg/mL (≈ 35.4 µM)
[4]
  MIC: 12.5 µg/mL (≈ 35.4 µM)
[5]
  MIC: 25 µg/mL (≈ 70.7 µM)

## O=c1cc(-c2ccccc2)oc2cc(OCCCNCCO)cc(O)c12
[2]
  MIC: 25 µg/mL (≈ 70.3 µM)
[3]
  MIC: 6.25 µg/mL (≈ 17.6 µM)
[4]
  MIC: 12.5 µg/mL (≈ 35.2 µM)
[5]
  MIC: 12.5 µg/mL (≈ 35.2 µM)

## O=c1cc(-c2ccccc2)oc2cc(OCCN3CCCC3)cc(O)c12
[2]
  MIC: 25 µg/mL (≈ 71.1 µM)
[3]
  MIC: 6.25 µg/mL (≈ 17.8 µM)
[4]
  MIC: 12.5 µg/mL (≈ 35.6 µM)
[5]
  MIC: 25 µg/mL (≈ 71.1 µM)

## CCCN(CCC)CCCOc1cc(O)c2c(=O)cc(-c3ccccc3)oc2c1
[2]
  MIC: > 50 µg/mL
[3]
  MIC: 25 µg/mL (≈ 63.2 µM)
[4]
  MIC: 25 µg/mL (≈ 63.2 µM)
[5]
  MIC: 25 µg/mL (≈ 63.2 µM)

## CCCNCCOc1cc(O)c2c(=O)cc(-c3ccccc3)oc2c1
[1]
  IC50: 54 µM
[2]
  MIC: 50 µg/mL (≈ 147 µM)
[3]
  MIC: 25 µg/mL (≈ 73.7 µM)
[4]
  MIC: 25 µg/mL (≈ 73.7 µM)
[5]
  MIC: 50 µg/mL (≈ 147 µM)

## O=c1cc(-c2ccccc2)oc2cc(OCCCN3CCNCC3)cc(O)c12
[1]
  IC50: 6.6 µM
[2]
  MIC: 6.25 µg/mL (≈ 16.4 µM)
[3]
  MIC: 3.13 µg/mL (≈ 8.23 µM)
[4]
  MIC: 12.5 µg/mL (≈ 32.9 µM)
[5]
  MIC: 12.5 µg/mL (≈ 32.9 µM)

## CN1CCN(CCOc2cc(O)c3c(=O)cc(-c4ccccc4)oc3c2)CC1
[2]
  MIC: 25 µg/mL (≈ 65.7 µM)
[3]
  MIC: 12.5 µg/mL (≈ 32.9 µM)
[4]
  MIC: 25 µg/mL (≈ 65.7 µM)
[5]
  MIC: 50 µg/mL (≈ 131 µM)

## CCCN(CCC)CCOc1cc(O)c2c(=O)cc(-c3ccccc3)oc2c1
[2]
  MIC: > 50 µg/mL
[3]
  MIC: > 50 µg/mL
[4]
  MIC: > 50 µg/mL
[5]
  MIC: > 50 µg/mL

## CCN(CC)CCOc1cc(O)c2c(=O)cc(-c3ccccc3)oc2c1
[1]
  IC50: 70 µM
[2]
  MIC: > 50 µg/mL
[3]
  MIC: > 50 µg/mL
[4]
  MIC: > 50 µg/mL
[5]
  MIC: > 50 µg/mL

## NC[C@H]1O[C@H](O[C@H]2[C@H](O)[C@@H](O[C@H]3O[C@H](CO)[C@@H](O)[C@H](N)[C@H]3O)[C@H](N)C[C@@H]2N)[C@H](N)[C@@H](O)[C@@H]1O [BEKANAMYCIN]
[2]
  MIC: 1.56 µg/mL (≈ 3.23 µM)
[3]
  MIC: 3.13 µg/mL (≈ 6.47 µM)
[4]
  MIC: 3.13 µg/mL (≈ 6.47 µM)
[5]
  MIC: 1.56 µg/mL (≈ 3.23 µM)

## O=c1cc(-c2ccccc2)oc2cc(O)cc(O)c12 [CHRYSIN]
[2]
  MIC: > 50 µg/mL
[3]
  MIC: > 50 µg/mL
[4]
  MIC: > 50 µg/mL
[5]
  MIC: > 50 µg/mL
